Measurements taken from ChEMBL document CHEMBL1201862, “PubChem BioAssay data set” (2004).
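48-hour exposure; five concentrations; linearly interpolated endpoints. Abbreviation: GI50, concentration required for 50% inhibition of growth.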 Active and inactive are the calls of the source. No stated cut-off is given here; in the data, active = GI50 up to about 1.1 µM and inactive = higher.

Assays:
Assay in all cases: NCI tumour cell line growth inhibition, 48 h
[1] = test system: SK-OV-3
[2] = test system: COLO 205
[3] = test system: A549
[4] = test system: RPMI-8226
[5] = test system: HL-60
[6] = test system: Malme-3M
[7] = test system: HCC 2998
[8] = test system: SK-MEL-5
[9] = test system: LOX IMVI
[10] = test system: SNB-19
[11] = test system: SW-620
[12] = test system: A498
[13] = test system: MOLT-4
[14] = test system: UACC-62
[15] = test system: K562
[16] = test system: OVCAR-4
[17] = test system: HOP-92
[18] = test system: SF-539
[19] = test system: UACC-257
[20] = test system: SF-295

| SMILES | GI50 [1] | GI50 [2] | GI50 [3] | GI50 [4] | GI50 [5] | GI50 [6] | GI50 [7] | GI50 [8] | GI50 [9] | GI50 [10] | GI50 [11] | GI50 [12] | GI50 [13] | GI50 [14] | GI50 [15] | GI50 [16] | GI50 [17] | GI50 [18] | GI50 [19] | GI50 [20] |
| --- | --- | --- | --- | --- | --- | --- | --- | --- | --- | --- | --- | --- | --- | --- | --- | --- | --- | --- | --- | --- |
| O=C1Nc2ccccc2C1Cc1ccccc1 (stereo unspecified) | > 100 µM (inactive) | > 100 µM (inactive) | > 100 µM (inactive) | > 100 µM (inactive) | > 100 µM (inactive) | > 100 µM (inactive) | > 100 µM (inactive) | 43.6 µM (inactive) | > 100 µM (inactive) | > 100 µM (inactive) | > 100 µM (inactive) | > 100 µM (inactive) | > 100 µM (inactive) | > 100 µM (inactive) | > 100 µM (inactive) | > 100 µM (inactive) | > 100 µM (inactive) | > 100 µM (inactive) | > 100 µM (inactive) |  |
| CC1=C(C(=O)CC(=O)C(=O)Nc2ccccc2C(F)(F)F)Sc2ccccc2N1 | > 100 µM (inactive) | > 100 µM (inactive) | 51.1 µM (inactive) | 60 µM (inactive) | 35.4 µM (inactive) | > 100 µM (inactive) | 41.1 µM (inactive) | 37.3 µM (inactive) | 59.3 µM (inactive) | 35.1 µM (inactive) | 33.7 µM (inactive) | > 100 µM (inactive) |  | 38.5 µM (inactive) | 49.1 µM (inactive) | 29.3 µM (inactive) | 20.8 µM (inactive) | 31.2 µM (inactive) | 42.2 µM (inactive) | 47.4 µM (inactive) |
| C1OCN2c3nonc3N3COCN4c5nonc5N1C2C43 (stereo unspecified) | > 100 µM (inactive) | 40.3 µM (inactive) | > 100 µM (inactive) | > 100 µM (inactive) | 83.4 µM (inactive) | > 100 µM (inactive) | 68.4 µM (inactive) | > 100 µM (inactive) |  | > 100 µM (inactive) | > 100 µM (inactive) | > 100 µM (inactive) | 50.1 µM (inactive) | > 100 µM (inactive) | 78 µM (inactive) | > 100 µM (inactive) | > 100 µM (inactive) | > 100 µM (inactive) | > 100 µM (inactive) | > 100 µM (inactive) |
| COc1c(C)c(OC)c2c(c1O)[C@@H]1[C@@H]3Cc4c(OC)c(C)c(OC)c(O)c4[C@H](CNC(=O)c4ccc5ccccc5n4)N3[C@@H](C#N)[C@H](C2)N1C |  | 0.000891 µM (active) | 0.00263 µM (active) | 0.000324 µM (active) | 0.000363 µM (active) | 0.000162 µM (active) | 0.00014 µM (active) | 0.000495 µM (active) | 0.00026 µM (active) | 0.00569 µM (active) | 0.00033 µM (active) | 0.000629 µM (active) | 0.00016 µM (active) | 0.000411 µM (active) | 0.000537 µM (active) | 0.00217 µM (active) | 0.000363 µM (active) | 0.0017 µM (active) | 0.00206 µM (active) | 0.0018 µM (active) |
| N#Cc1cc([N+](=O)[O-])ccc1NC(=O)C(=O)Nc1n[nH]c(N)n1 | > 100 µM (inactive) | > 100 µM (inactive) | > 100 µM (inactive) | > 100 µM (inactive) | > 100 µM (inactive) | > 100 µM (inactive) | > 100 µM (inactive) | > 100 µM (inactive) | > 100 µM (inactive) | > 100 µM (inactive) | > 100 µM (inactive) | > 100 µM (inactive) | > 100 µM (inactive) | > 100 µM (inactive) | > 100 µM (inactive) | > 100 µM (inactive) | > 100 µM (inactive) | > 100 µM (inactive) | > 100 µM (inactive) |  |
| O=[N+]([O-])C1=Cc2c(O)ccc(O)c2C2c3ccccc3NC12 (stereo unspecified) | 29 µM (inactive) | 11.6 µM (inactive) | 17.3 µM (inactive) | 10.4 µM (inactive) | 5.85 µM (inactive) |  | 7.52 µM (inactive) | 12.8 µM (inactive) | 14 µM (inactive) | 12.2 µM (inactive) | 9.1 µM (inactive) | 14.7 µM (inactive) | 3.18 µM (inactive) | 6.32 µM (inactive) | 9.27 µM (inactive) | 16 µM (inactive) | 7.28 µM (inactive) | 30.9 µM (inactive) | 13.9 µM (inactive) | 13.2 µM (inactive) |
| CCOC(=O)C(C(N)=O)C1=Nc2cc([N+](=O)[O-])ccc2N/C1=C\C(=O)c1ccccc1 (stereo unspecified) | 14.1 µM (inactive) | 17.9 µM (inactive) | 17.3 µM (inactive) | 11.1 µM (inactive) | 8.93 µM (inactive) | 19.9 µM (inactive) | 10.1 µM (inactive) | 16.7 µM (inactive) | 14.1 µM (inactive) | 18.5 µM (inactive) | 15.6 µM (inactive) | 16.6 µM (inactive) |  | 17.3 µM (inactive) | 3.82 µM (inactive) | 18.7 µM (inactive) | 15.4 µM (inactive) | 15.1 µM (inactive) | 19.8 µM (inactive) | 16.7 µM (inactive) |
| CS(=O)(=O)c1nc(N)nc2nc[nH]c12 | > 100 µM (inactive) | > 100 µM (inactive) | > 100 µM (inactive) | > 100 µM (inactive) | > 100 µM (inactive) |  | > 100 µM (inactive) | > 100 µM (inactive) | > 100 µM (inactive) | > 100 µM (inactive) | > 100 µM (inactive) | > 100 µM (inactive) | > 100 µM (inactive) | > 100 µM (inactive) | > 100 µM (inactive) | > 100 µM (inactive) | > 100 µM (inactive) | > 100 µM (inactive) | > 100 µM (inactive) | > 100 µM (inactive) |
| CC(=O)CC(=O)Nc1ccccc1[N+](=O)[O-] | > 100 µM (inactive) | > 100 µM (inactive) | > 100 µM (inactive) | > 100 µM (inactive) | > 100 µM (inactive) | > 100 µM (inactive) | > 100 µM (inactive) | > 100 µM (inactive) |  | > 100 µM (inactive) | > 100 µM (inactive) | > 100 µM (inactive) | > 100 µM (inactive) | > 100 µM (inactive) | > 100 µM (inactive) | > 100 µM (inactive) | > 100 µM (inactive) | > 100 µM (inactive) | > 100 µM (inactive) | > 100 µM (inactive) |
| CO[C@]12CCC(=O)N1C=Cc1c2[nH]c2ccccc12 |  | > 100 µM (inactive) | > 100 µM (inactive) | > 100 µM (inactive) | > 100 µM (inactive) | > 100 µM (inactive) | > 100 µM (inactive) | > 100 µM (inactive) | > 100 µM (inactive) | > 100 µM (inactive) | > 100 µM (inactive) | > 100 µM (inactive) | > 100 µM (inactive) | > 100 µM (inactive) | > 100 µM (inactive) | > 100 µM (inactive) | > 100 µM (inactive) | > 100 µM (inactive) | > 100 µM (inactive) | > 100 µM (inactive) |
| Cc1nc2c(o1)/C(=N\c1ccccc1)c1nc(C)oc1/C2=N/c1ccccc1 | 20.2 µM (inactive) | 33.1 µM (inactive) | 24.8 µM (inactive) | 29.6 µM (inactive) | 49.9 µM (inactive) | 19.4 µM (inactive) | 32.4 µM (inactive) | 1.06 µM (active) | 28.2 µM (inactive) | 21.2 µM (inactive) | 34.4 µM (inactive) | 1.29 µM (inactive) | 27.5 µM (inactive) | 18.8 µM (inactive) | 33 µM (inactive) |  | 24 µM (inactive) | 14.1 µM (inactive) | 29.6 µM (inactive) | 23.4 µM (inactive) |
| COc1cccc(-c2ccc3c4c2O[C@H]2c5[nH]c6ccccc6c5C[C@@]5(O)[C@@H](C3)N(CC3CC3)CC[C@]425)c1 |  | 1.81 µM (inactive) | 1.77 µM (inactive) | 2.18 µM (inactive) | 1.38 µM (inactive) | 1.5 µM (inactive) | 1.53 µM (inactive) | 1.94 µM (inactive) | 1.72 µM (inactive) | 2.05 µM (inactive) | 1.93 µM (inactive) | 2.19 µM (inactive) | 0.82 µM (active) | 1.67 µM (inactive) | 1.9 µM (inactive) | 1.71 µM (inactive) | 1.37 µM (inactive) | 1.78 µM (inactive) | 1.74 µM (inactive) | 1.71 µM (inactive) |
| CCCCCCCCCCCCCCCCOP(=O)(O)Oc1ccc(/C=C\c2ccc(OP(=O)(O)OCCCCCCCCCCCCCCCC)cc2)cc1 | > 100 µM (inactive) | 17.5 µM (inactive) | 82.4 µM (inactive) | 19.3 µM (inactive) | 26 µM (inactive) | > 100 µM (inactive) | > 100 µM (inactive) | > 100 µM (inactive) | > 100 µM (inactive) | 64.1 µM (inactive) | > 100 µM (inactive) | 83.9 µM (inactive) | 59 µM (inactive) | > 100 µM (inactive) | 36.1 µM (inactive) | 62.5 µM (inactive) | 5.02 µM (inactive) |  | > 100 µM (inactive) | 29.6 µM (inactive) |
| c1ccc(-c2nc(-c3ccccc3)c(-c3ccccc3)[nH]2)cc1 | > 100 µM (inactive) | > 100 µM (inactive) | > 100 µM (inactive) | > 47.6 µM (inactive) | 18.1 µM (inactive) | 36.1 µM (inactive) | > 100 µM (inactive) | > 100 µM (inactive) | > 100 µM (inactive) | > 100 µM (inactive) | > 100 µM (inactive) | > 100 µM (inactive) | > 35.8 µM (inactive) | > 94.4 µM (inactive) |  | 85.9 µM (inactive) | > 100 µM (inactive) | > 100 µM (inactive) | > 85.5 µM (inactive) | > 100 µM (inactive) |
